Assay results: DBAASP
In brackets after ≈: the same amount, converted by molar mass.

Assays:
Assay in all cases: ≥ marks a high value that may be exact or a test limit, other limits are often not marked, values filed in µg/mL are converted to µM
[1] = tested on: Pseudomonas aeruginosa ATCC 27853
[2] = tested on: Candida albicans NCTC 3179
[3] = tested on: Staphylococcus aureus ATCC 25923
[4] = tested on: Streptococcus mutans NCTC 10449
[5] = tested on: Escherichia coli ATCC 25922
[6] = tested on: Enterococcus faecalis NCTC 12697
[7] = tested on: Lactobacillus acidophilus NCTC 1723
[8] = tested on: Proteus mirabilis ATCC 25933
[9] = tested on: Staphylococcus epidermidis RP62A
[10] = tested on: Staphylococcus aureus ATCC 29213
[11] = tested on: Staphylococcus epidermidis RP62A/1
[12] = tested on: Acinetobacter baumannii
[13] = tested on: Stenotrophomonas maltophilia
[14] = tested on: Candida albicans ATCC 90028
[15] = tested on: Escherichia coli ATCC 25726
[16] = tested on: Klebsiella pneumoniae ATCC 700603
[17] = tested on: Bordetella pertussis
[18] = tested on: Escherichia coli B
[19] = tested on: Candida albicans F7-39/IDE99
[20] = tested on: Staphylococcus aureus
[21] = tested on: Pseudomonas aeruginosa
[22] = tested on: Bacillus subtilis

Work on `CSCC[C@H](NC(=O)[C@H](CC(C)C)NC(=O)CNC(=O)[C@@H](NC(=O)[C@H](Cc1ccccc1)NC(=O)[C@H](CO)NC(=O)[C@H](CC(=O)O)NC(=O)[C@@H](NC(=O)[C@H](CCCCN)NC(=O)[C@@H](N)Cc1cnc[nH]1)[C@@H](C)O)C(C)C)C(N)=O` [HKTDSFVGLM] yielded an MIC [1] of over 441 µM, an MIC [2] of at least 441 µM and an MIC [3] of over 441 µM. It also gave an MIC [4] of at least 441 µM, an MIC [5] of over 441 µM and an MIC [6] of at least 441 µM. The MIC [7] was at least 441 µM.
Compound `CC[C@H](C)[C@H](N)C(=O)N[C@@H](CCCCN)C(=O)N[C@@H](CC(C)C)C(=O)N[C@@H](CO)C(=O)N1CCC[C@H]1C(=O)N[C@@H](CCC(=O)O)C(=O)N[C@H](C(=O)N[C@@H](CCCCN)C(=O)N[C@@H](CCCCN)C(=O)N[C@@H](CC(N)=O)C(=O)N[C@@H](CC(C)C)C(=O)N[C@@H](CCCCN)C(=O)N[C@@H](CCCCN)C(=O)N[C@H](C(=O)N[C@@H](CC(C)C)C(=O)N[C@@H](CCCCN)C(=O)NCC(=O)N[C@@H](C)C(=O)N[C@H](C(=O)N[C@@H](CCCCN)C(=O)NCC(=O)N[C@@H](C)C(=O)N[C@H](C(=O)N[C@@H](C)C(=O)N[C@H](C(=O)N[C@@H](C)C(=O)N[C@@H](CCCCN)C(=O)N[C@@H](CCSC)C(=O)N[C@H](C(N)=O)C(C)C)C(C)C)[C@@H](C)CC)[C@@H](C)CC)C(C)C)[C@@H](C)O` [IKLSPETKKNLKKVLKGAIKGAIAVAKMV] has an MIC [1] of 25 µM (≈ 76.9 µg/mL), an MIC [8] of at least 100 µM and an MIC [9] of 1.6 µM (≈ 4.92 µg/mL). The MIC [3] was 3.1 µM (≈ 9.54 µg/mL), the MIC [10] was 3.1 µM (≈ 9.54 µg/mL) and the MIC [11] was 0.8 µM (≈ 2.46 µg/mL). It also gave an MIC [12] of 3.1 µM (≈ 9.54 µg/mL), an MIC [13] of 3.1 µM (≈ 9.54 µg/mL) and an MIC [14] of at least 50 µM. The MIC [15] was 6.25 µM (≈ 19.2 µg/mL) and the MIC [16] was 12.5 µM (≈ 38.5 µg/mL).
Compound `CC[C@H](C)[C@@H]1NC(=O)[C@H](CCC(N)=O)NC(=O)[C@H](CCCCN)NC(=O)[C@H](CCSC)NC(=O)[C@H](CCCCN)NC(=O)[C@@H]2CCCN2C(=O)[C@H](C)NC(=O)[C@@H]2CSSC[C@@H](C(=O)N[C@@H](CCCCN)C(=O)N[C@@H](CCCN=C(N)N)C(=O)N[C@@H](CCCCN)C(=O)O)NC(=O)[C@@H]3CSSC[C@H](NC(=O)[C@H](CO)NC(=O)[C@@H](NC(=O)[C@H](CO)NC(=O)[C@H](CC(N)=O)NC(=O)CNC(=O)[C@@H](NC(=O)[C@H](CC(N)=O)NC(=O)[C@@H](N)CCCCN)[C@@H](C)CC)C(C)C)C(=O)N[C@@H](CC(C)C)C(=O)N[C@@H](CCCN=C(N)N)C(=O)N[C@@H](CC(N)=O)C(=O)N[C@@H](CCCCN)C(=O)NCC(=O)N[C@@H](C(C)C)C(=O)N[C@@H](CSSC[C@H](NC(=O)[C@H]([C@@H](C)O)NC(=O)CNC1=O)C(=O)NCC(=O)N[C@@H](CCSC)C(=O)N1CCC[C@H]1C(=O)N[C@@H](CCC(N)=O)C(=O)N[C@@H](C(C)C)C(=O)N[C@@H](CCCCN)C(=O)N3)C(=O)N[C@@H](CCSC)C(=O)N1CCC[C@H]1C(=O)NCC(=O)N[C@@H](CCCCN)C(=O)N2` [KNIGNSVSCLRNKGVCMPGKCAPKMKQIGTCGMPQVKCCKRK] has an MIC [3] of 17.7 µM (≈ 79.9 µg/mL), an MIC [17] of 1.1 µM (≈ 4.99 µg/mL) and an MIC [5] of 22.1 µM (≈ 99.9 µg/mL).
Work on `CC(C)C[C@@H]1NC(=O)[C@H](CCCCN)NC(=O)[C@H](CC(C)C)NC(=O)[C@@H]2CCCN2C(=O)CNC(=O)[C@H](CCCCN)NC(=O)[C@@H](NC(=O)[C@H](CCCCN)NC(=O)CNC(=O)[C@H](CCCCN)NC(=O)[C@H](CCCCN)NC(=O)[C@H](CCCCN)NC(=O)[C@H](C)N)CSSC[C@@H](C(N)=O)NC(=O)[C@H](CCCCN)NC(=O)[C@H](C)NC(=O)[C@H](C(C)C)NC1=O` [AKKKGKCKGPLKLVAKC] yielded an MIC [18] of at least 100 µM, an MIC [19] of at least 100 µM and an MIC [20] of over 100 µM. The MIC [21] was over 100 µM and the MIC [22] was at least 65 µM.
